Results from patent publication US20170354655A1, “TLR INHIBITOR AND BRUTON'S TYROSINE KINASE INHIBITOR COMBINATIONS” (Pharmacyclics LLC, priority 2014, published 2017).

Key:
TMD8 cells = assay: Combined drug treatment with 5Z-7-Oxozeaenol and ibrutinib, CellTiter-Glo cell viability in TMD8 cell line; format: cell-based
Method: A 40 μL aliquot of CellTiter-Glo® reagent was added directly into each well of the 96-W plate. The plate was then shaken on a Shaker (Labsystem Wellmix) at speed 5 for 10-20 min at room temperature. Next, about 100 μL of the mixed medium was transferred to a white, non-transparent, flat bottom 96-W plate for assaying. A Flexstation 3 luminometer was used for detecting and measuring the luminescent signals. Measurements were taken at room temperature.
The luminescent measurements were subsequently processed and analyzed using CalcuSyn (CI) and Chalice Analyzer (synergy score). CalcuSyn performs the multiple drug dose-effect calculations using the Median Effect methods described by T-C Chou and P. Talalay in “Analysis of combined drug effects: a new look at a very old problem,” Trends Pharmacol. Sci. 4:450-454 (1983). In general, the resulting combination index (CI) obtained from the Chou-Talalay method defines quantitatively for additive effect (CI=1), synergism (CI<1), and antagonism (CI>1) in drug combinations. Chalice Analyzer utilizes the method described in Lehar et al. “Synergistic drug combinations improve therapeutic selectivity,” Nat. Biotechnol. 27(7):659-666 (2009). Synergy scores is higher than 1 indicate synergy between two compounds, with higher synergy scores indicating better synergy.
200 μl of TMD8 wt cells (1.0×10^4 cells) at 5.0×10^4 cells/ml was plated into each well of a 96-well plate. The cells were grown in RPMI-10P medium.
The TAK1 inhibitor used for this experiment was 5Z-7-oxozeaenol. […] The stock solution for chloroquine diphosphate was prepared at 20 mM concentration. The CellTiter-Glo® assay follow the protocols of Example 1.

[1] = test system: patients who have the activated B-cell like (ABC) subtype of DLBCL; conditions: cited from earlier work

C=CC(=O)N1CCC[C@@H](n2nc(-c3ccc(Oc4ccccc4)cc3)c3c(N)ncnc32)C1 [ibrutinib, 1-((R)-3-(4-amino-3-(4-phenoxyphenyl)-1H-pyrazolo[3,4-d]pyrimidin-1-yl)piperidin-1-yl)prop-2-en-1-one]
luminescent signal (CellTiter-Glo) (TMD8 cells; 5Z-7-OXO 0 nM, ibrutinib 0.00026 nM): 268264 | luminescent signal (CellTiter-Glo) (TMD8 cells; 5Z-7-OXO 0 nM, ibrutinib 0.00128 nM): 245879 | luminescent signal (CellTiter-Glo) (TMD8 cells; 5Z-7-OXO 0 nM, ibrutinib 0.0064 nM): 240905 | luminescent signal (CellTiter-Glo) (TMD8 cells; 5Z-7-OXO 0 nM, ibrutinib 0.032 nM): 249480 | luminescent signal (CellTiter-Glo) (TMD8 cells; 5Z-7-OXO 0 nM, ibrutinib 0.16 nM): 190532 | luminescent signal (CellTiter-Glo) (TMD8 cells; 5Z-7-OXO 0 nM, ibrutinib 0.8 nM): 126175 | luminescent signal (CellTiter-Glo) (TMD8 cells; 5Z-7-OXO 0 nM, ibrutinib 4 nM): 96203.8 | luminescent signal (CellTiter-Glo) (TMD8 cells; 5Z-7-OXO 0 nM, ibrutinib 20 nM): 90633.1 | luminescent signal (CellTiter-Glo) (TMD8 cells; 5Z-7-OXO 0 nM, ibrutinib 100 nM): 94612.5 | overall response rate [1]: 41% | overall survival [1]: 9.7 month

COc1cc(O)c2c(c1)/C=C/C[C@H](O)[C@H](O)C(=O)/C=C\C[C@H](C)OC2=O [5Z-7-Oxozeaenol, 5Z-7-oxozeaenol]
luminescent signal (CellTiter-Glo) (TMD8 cells; 5Z-7-OXO 1 nM, ibrutinib 0 nM): 259932 | luminescent signal (CellTiter-Glo) (TMD8 cells; 5Z-7-OXO 1 nM, ibrutinib 0.00026 nM): 249856 | luminescent signal (CellTiter-Glo) (TMD8 cells; 5Z-7-OXO 1 nM, ibrutinib 0.00128 nM): 259290 | luminescent signal (CellTiter-Glo) (TMD8 cells; 5Z-7-OXO 1 nM, ibrutinib 0.0064 nM): 236187 | luminescent signal (CellTiter-Glo) (TMD8 cells; 5Z-7-OXO 1 nM, ibrutinib 0.032 nM): 249545 | luminescent signal (CellTiter-Glo) (TMD8 cells; 5Z-7-OXO 1 nM, ibrutinib 0.16 nM): 181569 | luminescent signal (CellTiter-Glo) (TMD8 cells; 5Z-7-OXO 1 nM, ibrutinib 0.8 nM): 127363 | luminescent signal (CellTiter-Glo) (TMD8 cells; 5Z-7-OXO 1 nM, ibrutinib 4 nM): 98378.9 | luminescent signal (CellTiter-Glo) (TMD8 cells; 5Z-7-OXO 1 nM, ibrutinib 20 nM): 98536.7 | luminescent signal (CellTiter-Glo) (TMD8 cells; 5Z-7-OXO 1 nM, ibrutinib 100 nM): 78834.1 | luminescent signal (CellTiter-Glo) (TMD8 cells; 5Z-7-OXO 10 nM, ibrutinib 0 nM): 277804 | luminescent signal (CellTiter-Glo) (TMD8 cells; 5Z-7-OXO 10 nM, ibrutinib 0.00026 nM): 260616 | luminescent signal (CellTiter-Glo) (TMD8 cells; 5Z-7-OXO 10 nM, ibrutinib 0.00128 nM): 241442 | luminescent signal (CellTiter-Glo) (TMD8 cells; 5Z-7-OXO 10 nM, ibrutinib 0.0064 nM): 223023 | luminescent signal (CellTiter-Glo) (TMD8 cells; 5Z-7-OXO 10 nM, ibrutinib 0.032 nM): 222768 | luminescent signal (CellTiter-Glo) (TMD8 cells; 5Z-7-OXO 10 nM, ibrutinib 0.16 nM): 175048 | luminescent signal (CellTiter-Glo) (TMD8 cells; 5Z-7-OXO 10 nM, ibrutinib 0.8 nM): 120925 | luminescent signal (CellTiter-Glo) (TMD8 cells; 5Z-7-OXO 10 nM, ibrutinib 4 nM): 96219.6 | luminescent signal (CellTiter-Glo) (TMD8 cells; 5Z-7-OXO 10 nM, ibrutinib 20 nM): 86196 | luminescent signal (CellTiter-Glo) (TMD8 cells; 5Z-7-OXO 10 nM, ibrutinib 100 nM): 86511.6 | luminescent signal (CellTiter-Glo) (TMD8 cells; 5Z-7-OXO 100 nM, ibrutinib 0 nM): 167090 | luminescent signal (CellTiter-Glo) (TMD8 cells; 5Z-7-OXO 100 nM, ibrutinib 0.00026 nM): 168173 | luminescent signal (CellTiter-Glo) (TMD8 cells; 5Z-7-OXO 100 nM, ibrutinib 0.00128 nM): 147600 | luminescent signal (CellTiter-Glo) (TMD8 cells; 5Z-7-OXO 100 nM, ibrutinib 0.0064 nM): 151829 | luminescent signal (CellTiter-Glo) (TMD8 cells; 5Z-7-OXO 100 nM, ibrutinib 0.032 nM): 130054 | luminescent signal (CellTiter-Glo) (TMD8 cells; 5Z-7-OXO 100 nM, ibrutinib 0.16 nM): 98728.8 | luminescent signal (CellTiter-Glo) (TMD8 cells; 5Z-7-OXO 100 nM, ibrutinib 0.8 nM): 54512.9 | luminescent signal (CellTiter-Glo) (TMD8 cells; 5Z-7-OXO 100 nM, ibrutinib 4 nM): 42472 | luminescent signal (CellTiter-Glo) (TMD8 cells; 5Z-7-OXO 100 nM, ibrutinib 20 nM): 40678.2 | luminescent signal (CellTiter-Glo) (TMD8 cells; 5Z-7-OXO 100 nM, ibrutinib 100 nM): 34016 | luminescent signal (CellTiter-Glo) (TMD8 cells; 5Z-7-OXO 1000 nM, ibrutinib 0 nM): 27259.1 | luminescent signal (CellTiter-Glo) (TMD8 cells; 5Z-7-OXO 1000 nM, ibrutinib 0.00026 nM): 29868.2 | luminescent signal (CellTiter-Glo) (TMD8 cells; 5Z-7-OXO 1000 nM, ibrutinib 0.00128 nM): 25315.4 | luminescent signal (CellTiter-Glo) (TMD8 cells; 5Z-7-OXO 1000 nM, ibrutinib 0.0064 nM): 23976.6 | luminescent signal (CellTiter-Glo) (TMD8 cells; 5Z-7-OXO 1000 nM, ibrutinib 0.032 nM): 20081.4 | luminescent signal (CellTiter-Glo) (TMD8 cells; 5Z-7-OXO 1000 nM, ibrutinib 0.16 nM): 15015.6 | luminescent signal (CellTiter-Glo) (TMD8 cells; 5Z-7-OXO 1000 nM, ibrutinib 0.8 nM): 12627.5 | luminescent signal (CellTiter-Glo) (TMD8 cells; 5Z-7-OXO 1000 nM, ibrutinib 4 nM): 13032.5 | luminescent signal (CellTiter-Glo) (TMD8 cells; 5Z-7-OXO 1000 nM, ibrutinib 20 nM): 13048.3 | luminescent signal (CellTiter-Glo) (TMD8 cells; 5Z-7-OXO 1000 nM, ibrutinib 100 nM): 12982.5 | luminescent signal (CellTiter-Glo) (TMD8 cells; 5Z-7-OXO 10000 nM, ibrutinib 0 nM): 4563.35 | luminescent signal (CellTiter-Glo) (TMD8 cells; 5Z-7-OXO 10000 nM, ibrutinib 0.00026 nM): 4729.05 | luminescent signal (CellTiter-Glo) (TMD8 cells; 5Z-7-OXO 10000 nM, ibrutinib 0.00128 nM): 4731.68 | luminescent signal (CellTiter-Glo) (TMD8 cells; 5Z-7-OXO 10000 nM, ibrutinib 0.0064 nM): 4700.12 | luminescent signal (CellTiter-Glo) (TMD8 cells; 5Z-7-OXO 10000 nM, ibrutinib 0.032 nM): 5299.8 | luminescent signal (CellTiter-Glo) (TMD8 cells; 5Z-7-OXO 10000 nM, ibrutinib 0.16 nM): 5307.69 | luminescent signal (CellTiter-Glo) (TMD8 cells; 5Z-7-OXO 10000 nM, ibrutinib 0.8 nM): 5441.83 | luminescent signal (CellTiter-Glo) (TMD8 cells; 5Z-7-OXO 10000 nM, ibrutinib 4 nM): 5749.55 | luminescent signal (CellTiter-Glo) (TMD8 cells; 5Z-7-OXO 10000 nM, ibrutinib 20 nM): 5957.34 | luminescent signal (CellTiter-Glo) (TMD8 cells; 5Z-7-OXO 10000 nM, ibrutinib 100 nM): 6244.03 | CI value for the 5Z-7-Oxozeaenol/ibrutinib combination (TMD8 cells; TMD8 cells): 0.17 | synergy score for the 5Z-7-Oxozeaenol/ibrutinib combination (TMD8 cells; TMD8 cells): 4.63 | synergy with ibrutinib (in words) (TMD8 cells; TMD8 cells): Synergy was observed
